Assay results as given in US20250145595A1, “ANTAGONISTS OF THE MUSCARINIC ACETYLCHOLINE RECEPTOR M4” (Vanderbilt University, priority 2021, published 2025).

Columns and labels:
Human M4 = molecular target: T1, Human M4 (Homo sapiens, UniProt P08173); assay: mAChR M4 cell-based functional assay (calcium flux, antagonism of EC80 acetylcholine response, M4/Gqi5/CHO-K1 cells); settings: % ACh maximum at 30 μM
T1 construct: expressed in transfected cells; host or cells: CHO-K1 (ATCC), stably co-transfected with Gqi5
T1 sequence (P08173 1-479): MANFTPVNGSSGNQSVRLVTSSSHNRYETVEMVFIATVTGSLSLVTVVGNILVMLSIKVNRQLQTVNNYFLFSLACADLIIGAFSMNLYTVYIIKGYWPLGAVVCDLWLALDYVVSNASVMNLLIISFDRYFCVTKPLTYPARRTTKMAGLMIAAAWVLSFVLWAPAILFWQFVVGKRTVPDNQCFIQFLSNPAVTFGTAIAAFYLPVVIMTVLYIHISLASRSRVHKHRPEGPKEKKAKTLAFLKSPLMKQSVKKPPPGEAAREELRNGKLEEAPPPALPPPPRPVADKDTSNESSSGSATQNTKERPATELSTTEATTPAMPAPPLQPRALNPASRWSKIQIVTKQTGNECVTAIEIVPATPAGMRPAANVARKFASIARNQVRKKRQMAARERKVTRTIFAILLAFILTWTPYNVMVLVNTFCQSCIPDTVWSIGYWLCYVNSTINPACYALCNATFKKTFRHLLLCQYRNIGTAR
Method: Human or rat M4 cDNA, along with the chimeric G protein Gqi5, were transfected into Chinese hamster ovary (CHO-K1) cells purchased from the American Type Culture Collection using Lipofectamine2000. M4/Gqi5/CHO cells were grown in Ham's F-12 medium containing 10% heat-inactivated fetal bovine serum (FBS), 20 mM HEPES, 500 μg/mL G418 sulfate, and 200 μg/mL Hygromycin B.
For high throughput measurement of agonist-evoked increases in intracellular calcium, CHO-K1 cells stably expressing muscarinic receptors were plated in growth medium lacking G^418 and hygromycin at 15,000 cells/20 μL/well in Greiner 384-well black-walled, tissue culture (TC)-treated, clear-bottom plates (VWR). Cells were incubated overnight at 37° C. and 5% CO2. The next day, cells were washed using an ELX 405 (BioTek) with assay buffer; the final volume was then aspirated to 20 μL. Next, 20 μL of a […] of Fluo-4/acetoxymethyl ester (Invitrogen, Carlsbad, CA), prepared as a 2.3 mM stock in DMSO and mixed in a 1:1 ratio with 10% (w/v) Pluronic F-127 and diluted in assay buffer, was added to the wells and the cell plates were incubated for 50 min at 37° C. and 5% CO2. Dye was removed by washing with the ELX 405 and the final volume was aspirated to 20 μL. Compound master plates were formatted in a 10-point concentration-response curve (CRC) format (1:3 dilutions) in 100% DMSO with a starting concentration of 10 or 1 mM using a BRAVO liquid handler (Agilent). Test compound CRCs were then transferred to daughter plates (240 nL) using the Echo acoustic plate reformatter (Labcyte, Sunnyvale, CA) and then diluted into assay buffer (40 μL) to a 2× stock using a Thermo Fisher Combi (Thermo Fisher Scientific, Waltham, MA).
Calcium flux was measured using the Functional Drug Screening System (FDSS) 6000 or 7000 (Hamamatsu Corporation, Tokyo, Japan) as an increase in the fluorescent static ratio. Compounds were applied to cells (20 μL, 2×) using the automated system of the FDSS at 2 seconds into the protocol and the data were collected at 1 Hz. At 143 s, 10 μL of an EC20 concentration of the muscarinic receptor agonist acetylcholine was added (5×), followed by the addition of 12 μL of an EC80 concentration of acetylcholine at the 268 s time point (5×). Agonist activity was analyzed as a concentration-dependent increase in calcium mobilization upon compound addition. Positive allosteric modulator activity was analyzed as a concentration-dependent increase in the EC20 acetylcholine response. Antagonist activity was analyzed as a concentration-dependent decrease in the EC80 acetylcholine response; for the purposes of the tables herein, an IC50 (inhibitory concentration 50) was calculated as a concentration-dependent decrease of the response elicited by an EC80 concentration of acetylcholine. Concentration-response curves were generated using a four-parameter logistical equation in XLFit curve fitting software (IDBS, Bridgewater, NJ) for Excel (Microsoft, Redmond, WA) or Prism (GraphPad Software, Inc., San Diego, CA) or the Dotmatics software platform (Dotmatics, Bishop's Stortford, UK).
Compounds were synthesized as described above. Activity (IC50 and Emin) was determined in the mAChR M4 cell-based functional assay as described above and the data are shown in Table 2.

Human M1 = molecular target: T2, Human M1 (Homo sapiens, UniProt P11229); assay: mAChR M1 cell-based functional assay (calcium flux, antagonism of EC80 acetylcholine response, hM1 CHO-K1 cells); settings: compound 61 versus compound 62, data of Table 3
T2 sequence (P11229 1-460): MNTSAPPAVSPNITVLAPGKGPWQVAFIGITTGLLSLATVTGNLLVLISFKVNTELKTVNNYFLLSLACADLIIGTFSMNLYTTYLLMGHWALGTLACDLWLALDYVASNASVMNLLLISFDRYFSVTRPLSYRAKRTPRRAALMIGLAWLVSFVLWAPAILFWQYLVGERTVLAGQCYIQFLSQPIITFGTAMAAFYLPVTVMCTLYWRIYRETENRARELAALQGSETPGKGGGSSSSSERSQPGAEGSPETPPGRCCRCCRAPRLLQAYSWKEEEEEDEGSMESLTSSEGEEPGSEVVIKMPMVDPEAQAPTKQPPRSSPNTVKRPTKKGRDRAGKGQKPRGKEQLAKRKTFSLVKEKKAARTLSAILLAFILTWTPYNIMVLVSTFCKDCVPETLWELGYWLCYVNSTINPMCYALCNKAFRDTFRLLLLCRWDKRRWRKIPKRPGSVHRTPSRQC
Method: hM1 cDNA was purchased from Missouri S&T cDNA Resource and used to stably transfect CHO-K1 cells purchased from the American Type Culture Collection using Lipofectamine2000. hM1 cells were grown in Ham's F-12 medium containing 10% heat-inactivated fetal bovine serum (FBS), 20 mM HEPES, and 50 μg/mL G418 sulfate.
For high throughput measurement of agonist-evoked increases in intracellular calcium, CHO-K1 cells stably expressing muscarinic receptors were plated in growth medium lacking G418 and hygromycin at 15,000 cells/20 μL/well in Greiner 384-well black-walled, tissue culture (TC)-treated, clear-bottom plates (VWR). Cells were incubated overnight at 37° C. and 5% CO2. […]
Calcium flux was measured using the Functional Drug Screening System (FDSS) 6000 (Hamamatsu Corporation, Tokyo, Japan) as an increase in the fluorescent static ratio. […] Agonist activity was analyzed as a concentration-dependent increase in calcium mobilization upon compound addition. […] Positive allosteric modulator activity was analyzed as a concentration-dependent increase in the EC20 acetylcholine response. Antagonist activity was analyzed as a concentration-dependent decrease in the EC80 acetylcholine response; for the purposes of the tables herein, an IC50 (inhibitory concentration 50) was calculated as a concentration-dependent decrease of the response elicited by an EC80 concentration of acetylcholine. […]

[1] = test system: catalepsy induced by the DA receptor antagonist haloperidol; settings: cited from earlier work

With [2H]C([2H])(C1CCOC(C)(C)C1)N1C[C@H]2C[C@H](Nc3ccc(-c4cnccc4C(F)(F)F)nn3)C[C@H]2C1 (single isomer, unassigned) [Compound 58] the “Human M4 Emin” value (Human M4) was 3%.
For [2H]C1([2H])CC(C([2H])([2H])N2C[C@H]3C[C@H](Nc4nnc(-c5cnccc5C(F)(F)F)cc4C)C[C@H]3C2)CC([2H])([2H])O1 [Compound 18, (3aR,5s,6aS)-N-(4-methyl-6-(4-(trifluoromethyl)pyridin-3-yl)pyridazin-3-yl)-2-((tetrahydro-2H-pyran-4-yl-2,2,6,6-d4)methyl-d2)octahydrocyclopenta[c]pyrrol-5-amine], the “Human M4 Emin” value (Human M4) was 4%.
With [2H]C1([2H])CC(C([2H])([2H])N2C[C@H]3C[C@H](Nc4nnc(-c5cnccc5C(F)(F)F)cc4OC)C[C@H]3C2)CC([2H])([2H])O1 [Compound 22, (3aR,5s,6aS)-N-(4-methoxy-6-(4-(trifluoromethyl)pyridin-3-yl)pyridazin-3-yl)-2-((tetrahydro-2H-pyran-4-yl-2,2,6,6-d4)methyl-d2)octahydrocyclopenta[c]pyrrol-5-amine] the “Human M4 Emin” value (Human M4) was 2%.
For [2H]C([2H])([C@@H]1CCCOC1)N1C[C@H]2C[C@H](Nc3ccc(-c4cccnc4C(F)(F)F)nn3)C[C@H]2C1 [Compound 47, (3aR,5s,6aS)-2-(((S)-tetrahydro-2H-pyran-3-yl)methyl-d2)-N-(6-(2-(trifluoromethyl)pyridin-3-yl)pyridazin-3-yl)octahydrocyclopenta[c]pyrrol-5-amine], the “Human M4 Emin” value (Human M4) was 2%.
For [2H]C([2H])([C@H]1CCCCO1)N1C[C@H]2C[C@H](Nc3ccc(-c4cccnc4C(F)(F)F)nn3)C[C@H]2C1 [Compound 49, (3aR,5s,6aS)-2-(((R)-tetrahydro-2H-pyran-2-yl)methyl-d2)-N-(6-(2-(trifluoromethyl)pyridin-3-yl)pyridazin-3-yl)octahydrocyclopenta[c]pyrrol-5-amine], the “Human M4 Emin” value (Human M4) was 2%.
In the case of [2H]C([2H])([C@H]1CCOC(C)(C)C1)N1C[C@H]2C[C@H](Nc3ccc(-c4cccnc4C(F)(F)F)nn3)C[C@H]2C1 [Compound 61, (3aR,5s,6aS)-2-(((S)-2,2-dimethyltetrahydro-2H-pyran-4-yl)methyl-d2)-N-(6-(2-(trifluoromethyl)pyridin-3-yl)pyridazin-3-yl)octahydrocyclopenta[c]pyrrol-5-amine], the remaining activity at 30 µM (Human M4; CHO-K1, read-out: Human M4 Emin) is reported as 8% and the “human mAChR M1 antagonist activity (comparison in words)” value (Human M1) is reported as “less human mAChR M1 antagonist activity than compound 62”.
For CN1[C@@H]2C[C@@H](OC(=O)[C@H](CO)c3ccccc3)C[C@H]1[C@@H]1O[C@@H]12 [scopolamine], the “reduction of haloperidol-induced catalepsy” value ([1]; M4KO mice) is listed as “ineffective in reducing catalepsy” and the “reversal of haloperidol-induced catalepsy” value ([1]; WT mice) is listed as “completely reversed”.
